According to patent publication US9339523B2, “Estrogenic extracts of Asparagus conchinchinensis (Lour.) Merr of the Liliaceae family and uses thereof” (BIONOVO, INC., priority 2007, dated 2016):

Columns and labels:
ERβ [1] = biological target: T1, ERβ (Homo sapiens, UniProt Q92731); test: TNF-RE tkLuc repression in U2OS cells with ERβ; assay type: cell-based; parameters: expressed in transfected cells; host or cells: U2OS (A10)
Experimental: (§1) For experiments, cells were collected, transferred to a cuvette, and then electroporated with a Bio-Rad gene pulser as described previously using 3 μg of reporter plasmid and 1 μg of ERα or ERβ expression vectors. After electroporation, the cells were resuspended in media and plated at 1 ml/dish in 12-well multiplates. […] The concentration of hormone required to produce a half-maximal induction (EC50) or inhibition (IC50) of luciferase activity was calculated with the Prism curve-fitting program (Graph Pad Software, version 2.0b). […] The cells were plated in duplicate at a density of 25,000 cells/35-mm plate in tissue culture medium containing 3% stripped fetal bovine serum. […] After 8 days the cells were counted with a Coulter counter.
(§2) The extracts (a and b) were than decanted and only the soluble material was used.

TNF-RE tkLuc = TNF-RE tkLuc reporter, ERα and ERβ not separated (Example 2); assay type: cell-based, human; settings: for activation of TNF-RE tkLuc: antiestrogens, in contrast to E2
Experimental: Plasmid Construction. […] ERβ mutants were created with QuikChange site-directed mutagenesis kits (Stratagene), by using oligonucleotides containing the mutation. The mutants were sequenced with Sequenase kits (Amersham Pharmacia) to verify the presence of the mutation.
as §1

ERβ [2] = biological target: T1, ERβ; test: ERE-tk-Luc luciferase assay in U2OS cells with ERβ; assay type: cell-based; parameters: expressed in transfected cells; host or cells: U2OS (human osteosarcoma); settings: competition with the extract, FIG. 6
Experimental: as §1, §2

[3] = five years of therapy; cited from earlier work
[4] = women at high risk for breast cancer; cited from earlier work

T1 sequence (Q92731 whole entry): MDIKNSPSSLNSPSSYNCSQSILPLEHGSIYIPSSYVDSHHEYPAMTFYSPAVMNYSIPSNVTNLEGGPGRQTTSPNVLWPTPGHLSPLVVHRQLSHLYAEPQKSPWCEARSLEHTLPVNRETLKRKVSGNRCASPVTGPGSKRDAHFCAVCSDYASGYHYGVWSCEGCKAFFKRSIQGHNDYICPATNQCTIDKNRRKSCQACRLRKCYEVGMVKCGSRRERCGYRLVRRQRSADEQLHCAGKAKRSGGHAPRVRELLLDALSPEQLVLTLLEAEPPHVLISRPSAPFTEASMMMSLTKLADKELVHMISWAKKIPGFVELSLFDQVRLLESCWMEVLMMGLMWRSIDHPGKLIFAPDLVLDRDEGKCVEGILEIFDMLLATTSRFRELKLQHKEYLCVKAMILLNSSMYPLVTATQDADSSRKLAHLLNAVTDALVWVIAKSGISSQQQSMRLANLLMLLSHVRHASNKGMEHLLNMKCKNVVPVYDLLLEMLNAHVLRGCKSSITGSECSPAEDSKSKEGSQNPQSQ

## C[C@]12CC[C@@H]3c4ccc(O)cc4CC[C@H]3[C@@H]1CC[C@@H]2O [E2, estradiol]
ERβ [1]
  repression of TNF-α activation of TNF-RE: 100%
TNF-RE tkLuc; in the presence of ERα and ERβ
  repression of TNF-α activation of TNF-RE tkLuc: 60-80%

## C[C@]12CC[C@@H]3c4ccc(O)cc4C[C@@H](CCCCCCCCC[S+]([O-])CCCC(F)(F)C(F)(F)F)[C@H]3[C@@H]1CC[C@@H]2O (stereo partly shown) [ICI 182, 780]
TNF-RE tkLuc; TNF-RE tkLuc
  effect on the repression induced by E2: abolished the repression induced by E2
TNF-RE tkLuc
  activation of TNF-RE tkLuc: 2 fold

## O=C(c1ccc(OCCN2CCCCC2)cc1)c1c(-c2ccc(O)cc2)sc2cc(O)ccc12 [raloxifene]
TNF-RE tkLuc; TNF-RE tkLuc
  effect on the repression induced by E2: abolished the repression induced by E2
TNF-RE tkLuc
  activation of TNF-RE tkLuc: 2 fold
ERβ [2]
  effect on the extract's stimulation of the ERE with ERβ: is inhibited

## CC/C(=C(\c1ccccc1)c1ccc(OCCN(C)C)cc1)c1ccccc1 [tamoxifen]
[3]
  reduction of mortality from breast cancer: 22%
  reduction of the risk of recurrences: 42%
[4]
  reduction of the risk of primary invasive breast cancer: 49%
TNF-RE tkLuc; TNF-RE tkLuc
  effect on the repression induced by E2: abolished the repression induced by E2
TNF-RE tkLuc
  activation of TNF-RE tkLuc: 2 fold

## TNF-α
TNF-RE tkLuc; TNF-RE tkLuc
  activation of 3 copies of the TNF-RE (−125 to −82) upstream of the tk promoter: 5-10 fold
